# Like-named read-outs stand apart in the source and are kept apart here.
# Experiments:
# [1] = tested on: Fusarium oxysporum strain FOP1; experiment: Inhibition of spore germination, ELISA plate assay (Examples V-XIV, XVII); format: cell-based; settings: Table 28; concentration of flusilazole for 50% inhibition, alone or with enzyme at its ED10 concentration
# Procedure: (§1) The concentration where fungal cell wall degrading enzyme individually provides a specified percentage fungal inhibition or where antifungal fungal cell membrane affecting compound individually provides a specific percentage fungal inhibition can be determined as follows: Assays are performed under sterile conditions. Equal volumes of spore suspensions, 3× potato dextrose broth, and the test solution or suspension in 5 mM Tris-HCl (pH 6.0) or 5 mM potassium phosphate buffer (pH 6.7) are mixed. The control is the same as the test solution except for the control the antifungal agent is omitted. The assay mixtures (total volume 45 or 30 μl) are incubated on flat-bottomed ELISA plates, each containing 96 wells, with 2,000 to 3,000 spores per well, at 25° C. After 22 to 30 hours, the plates are placed under an inverted microscope. The percentage of conidia germinating is determined as the percentage of the first 100 spores randomly found in a well. In addition, the lengths of 20 germ tubes are measured and averaged. All experiments are performed twice, with three replicates for each treatment. The inhibition values obtained in the two experiments are combined and averaged, and standard deviations are calculated from the 6 data points. The values obtained for the control are taken as 0% inhibition and all other values are divided by the values obtained for the control and multiplied by 100% to obtain percent inhibition. Determination of concentration corresponding to a particular percent inhibition is carried out by subjecting dose-response curves to regression analysis by using a binomial regression of the third order, with R^2 ranging between 0.95 and 0.99.
# (§2) Assays were carried out by the procedure described in the summary of the invention section. Dose response curves were obtained by probit analysis of data collected from two separate experiments with each experiment involving three treatment replicates.
# (§3) Dose response curves were determined for each antifungal fungal cell membrane affecting compound and for each fungal cell wall degrading enzyme singly. Then each fungal cell wall degrading enzyme at a concentration giving 10% inhibition when used alone was combined with increasing amounts of antifungal fungal cell membrane affecting compound. Then the concentration of antifungal fungal cell membrane affecting compound causing the ED50 for each combination was calculated by probit analysis of data collected from two experiments with three treatment replicates for each experiment. Assays for inhibition of spore germination were carried out as described in the summary of invention section above.
# The relative level of synergism (RS below) for each combination was calculated by applying Limpel's formula: Ee=X+Y−(XY/100) as described in Richer, D. L, Pestic. Sci. 19, 309-315, 1987. In Limpel's formula, X and Y are the percentages of inhibition relative to each compound used alone and Ee is the expected effect for an additional (non-synergistic) effect. If the combination of the two agents produces an observed effect (Eo) greater than Ee, synergism exists, and as the difference between Eo and Ee increases, the level of synergism is greater. In this experiment, the X value (percentage inhibition by fungal cell wall degrading enzyme when used alone was chosen to be 10 (10% inhibition of spore germination when used alone) and the observed effect, Eo, was 50 (i.e., 50% inhibition of spore germination). The Y values were obtained from the determined concentrations of antifungal cell membrane affecting compound causing the ED50 for a combination and the dose response curves for the antifungal cell membrane affecting compound used alone—i.e., the Y value was the percent inhibition for the antifungal fungal cell membrane affecting compound when used alone for the concentration of antifungal fungal cell membrane affecting compound that was determined to cause the ED50 for the combination. Ee values were then calculated from Limpel's formula. […]
# Botrytis cinerea = experiment: Inhibition of spore germination, Eppendorf tube assay (Examples I and II); format: cell-based; settings: for inhibition at 0.5 µg/mL: read-out: % inhibition; for % inhibition: enzyme 0 μg ml^−1 (fungicide alone); for % inhibition / Ee, expected effect from an additive response according to Limpel's formula, percent inhibition / Io, percent inhibition observed: flusilazole 5 ng ml^−1, miconazole 0.5 μg ml^−1; for ED50 of fungicide (dose effective for 50% inhibition): Table 9
# B. cinerea strain 12 = experiment: Inhibition of spore germination, ELISA plate assay (Examples III-XVI, XVIII); format: cell-based, Botrytis cinerea; settings: Table 20; concentration of flusilazole for 50% inhibition, alone or with enzyme at its ED10 concentration
# Procedure: as §1, §2
# Each of 8 antifungal fungal cell membrane affecting compounds were used in combination with each of 8 or 6 fungal cell wall degrading enzymes to provide 50% inhibition (ED50) of B. cinerea strain 12 spore germination. Each fungal cell wall degrading enzyme was used at a concentration giving 10% inhibition of spore germination when used alone in combination with an amount of antifungal fungal cell membrane affecting compound so the combination gave 50% inhibition of spore germination.
# as §3
# The relative level of synergism (RS below) for each combination was calculated by applying Limpel's formula: Ee=X+Y−(XY/100) as described in Richer, D. L, Pestic. Sci. 19, 309-315, 1987. In Limpel's formula, X and Y are the percentages of inhibition relative to each compound used alone and Ee is the expected effect for an additional (non-synergistic) effect. If the combination of the two agents produces an observed effect (Eo) greater than Ee, synergism exists, and as the difference between Eo and Ee increases, the level of synergism is greater. […]
# [2] = Solubility, guidance for forming solutions
# Description: Compositions for use in the systems herein are readily formulated by admixing the fungal cell wall degrading enzymes and the antifungal fungal cell membrane affecting compounds with non-toxic carriers appropriate for the particular use for a composition, e.g., agriculturally acceptable carriers for agricultural uses and pharmaceutically acceptable carriers for medicinal uses. They may be formulated as liquids (solutions or suspensions) or as solids. Since the fungal cell wall degrading enzymes need free water for activity, water must be present at the time of function. […] Water is a preferred vehicle where components are soluble in it. […] Organic solvents can also be used and may be required in some cases if a solution is desired. Guidance for forming solutions follows. […] Suspension can also be employed.
compound,measurement,setting,value
"C[Si](Cn1cncn1)(c1ccc(F)cc1)c1ccc(F)cc1 [Flusilazole, flusilazole]",ED50,[1],59.0 (51-65) ng ml^−1
same,inhibition at 5 ng/mL,"Botrytis cinerea; Botrytis cinerea, Table 5, endochitinase from G. virens strain 41 at 25 μg ml^−1, with flusilazole 5 ng ml^−1, miconazole 0.5 μg ml^−1 or none (enzyme alone)",89%
same,inhibition at 0.5 µg/mL,"Botrytis cinerea; Table 4, endochitinase from T. harzianum strain P1 at 75 μg ml^−1, with flusilazole 5 ng ml^−1, miconazole 0.5 μg ml^−1 or none (enzyme alone)",100%
same,% inhibition,Botrytis cinerea; Table 4,18%
same,% inhibition,Botrytis cinerea; Table 5,18%
same,inhibition at 0.5 µg/mL,"Botrytis cinerea; Table 6, chitobiosidase from T. harzianum strain P1 at 75 μg ml^−1, with flusilazole 5 ng ml^−1, miconazole 0.5 μg ml^−1 or none (enzyme alone)",100%
same,% inhibition,Botrytis cinerea; Table 6,18%
same,% inhibition,Botrytis cinerea; Table 7,18%
same,inhibition at 0.5 µg/mL,"Botrytis cinerea; Table 7, glucan 1,3-β-glucosidase from T. harzianum strain P1 at 100 μg ml^−1, with flusilazole 5 ng ml^−1, miconazole 0.5 μg ml^−1 or none (enzyme alone)",100%
same,ED50 of fungicide (dose effective for 50% inhibition),Botrytis cinerea; no endochitinase (0 μg ml^−1),60 ng/mL
same,ED50 of fungicide (dose effective for 50% inhibition),Botrytis cinerea; with endochitinase from T. harzianum strain P1 at 10 μg ml^−1,0.7 ng/mL
same,ED50 of fungicide (dose effective for 50% inhibition),Botrytis cinerea; with endochitinase from T. harzianum strain P1 at 25 μg ml^−1,0.3 ng/mL
same,ED50 of fungicide,"Botrytis cinerea; Table 10, no chitobiosidase (0 μg ml^−1)",60 ng/mL
same,ED50 of fungicide,"Botrytis cinerea; Table 10, with chitobiosidase from T. harzianum strain P1 at 25 μg ml^−1",1 ng/mL
same,ED50 of fungicide,"Botrytis cinerea; Table 10, with chitobiosidase from T. harzianum strain P1 at 50 μg ml^−1",0.4 ng/mL
same,ED50 of fungicide,"Botrytis cinerea; Table 10, with chitobiosidase from T. harzianum strain P1 at 75 μg ml^−1",0.35 ng/mL
same,ED50 of fungicide,"Botrytis cinerea; Table 10, with chitobiosidase from T. harzianum strain P1 at 100 μg ml^−1",0.3 ng/mL
same,ED50 of fungicide,"Botrytis cinerea; Table 11, no glucosidase (0 μg ml^−1)",60 ng/mL
same,ED50 of fungicide,"Botrytis cinerea; Table 11, with glucan 1,3-β-glucosidase from T. harzianum strain P1 at 25 μg ml^−1",3.3 ng/mL
same,ED50 of fungicide,"Botrytis cinerea; Table 11, with glucan 1,3-β-glucosidase from T. harzianum strain P1 at 50 μg ml^−1",1 ng/mL
same,ED50 of fungicide,"Botrytis cinerea; Table 11, with glucan 1,3-β-glucosidase from T. harzianum strain P1 at 75 μg ml^−1",0.17 ng/mL
same,ED50 of fungicide,"Botrytis cinerea; Table 12, no endochitinase (0 μg ml^−1)",60 ng/mL
same,ED50 of fungicide,"Botrytis cinerea; Table 12, with endochitinase from G. virens strain 41 at 25 μg ml^−1",2.5 ng/mL
same,ED50 of fungicide,"Botrytis cinerea; Table 12, with endochitinase from G. virens strain 41 at 50 μg ml^−1",1 ng/mL
same,ED50 of fungicide,"Botrytis cinerea; Table 12, with endochitinase from G. virens strain 41 at 75 μg ml^−1",4.5 ng/mL
same,ED50 of fungicide,"Botrytis cinerea; Table 12, with endochitinase from G. virens strain 41 at 100 μg ml^−1",0.22 ng/mL
same,"Ee, expected effect from an additive response according to Limpel's formula, percent inhibition",Botrytis cinerea; with Chitob. (P1) 25 μg ml^−1,27%
same,"Io, percent inhibition observed",Botrytis cinerea; with Endoc. (41) 25 pg ml^−1 (so in the source),67%
same,"Ee, expected effect from an additive response according to Limpel's formula, percent inhibition",Botrytis cinerea; with Endoc. (P1) 25 μg ml^−1,41%
same,"Ee, expected effect from an additive response according to Limpel's formula, percent inhibition",Botrytis cinerea; with Glucan. (P1) 25 μg ml^−1,22.1%
same,"Io, percent inhibition observed",Botrytis cinerea; with Glucan. (P1) 25 μg ml^−1,65%
same,ED50,B. cinerea strain 12,68 (61-85) ng ml^−1
same,solubility (solvent in which the substance dissolves),[2],dissolve in acetone

# Source: patent US6512166B1, “Combinations of fungal cell wall degrading enzyme and fungal cell membrane affecting compound” (priority 1991, dated 2003)
